These results are taken from patent EP4725490A1, “EED INHIBITOR SOLID DISPERSION, ORAL FORMULATION COMPRISING SAME, AND PREPARATION METHOD THEREFOR” (Ascentage Pharma (Suzhou) Co., Ltd., priority 2023, dated 2024).

Molecules are shown by their SMILES. Values after ≈ are worked out from the molar mass of the structure shown.

Data set [1] can be described thus: Solubility of compound A in various solvents (standard solubility determination). In kind it is physicochemical. The note with it: organic solvent or mixture, 25 °C. As to the method: The solubility (25 °C) of the active ingredient compound A in various solvents was determined using a standard solubility determination method well known in the art.
Data set [2] can be described thus: Solubility of compound A in aqueous buffer. The class given is physicochemical. The note with it: pH 1.2, aqueous buffer, thermodynamic from solid, pH of 1.2 to 7.4, 37 °C/24 h. From the text:
The starting material of compound A is an anhydrous crystal powder with slight hygroscopicity, which is almost insoluble in water. […] For such drugs with poor water solubility, the dissolution of the drugs in gastrointestinal fluids is the rate-limiting step of their bioavailability, and poor water solubility will necessarily lead to low dissolution and thus lower bioavailability. Therefore, if the bioavailability of the drug is to be improved, the dosage form, formula composition, and process need to be specially designed to change the dispersion state of the drug and promote its dissolution in the gastrointestinal tract.

Turning to `CC(C)N1Cc2cc(C(F)(F)F)ncc2-c2cnc(NCc3c(F)ccc4c3CCO4)n3cnc(c23)C1=O` [compound A, 12-(((5-fluoro-2,3-dihydrobenzofuran-4-yl)methyl)amino)-4-isopropyl-7-(trifluoromethyl)-4,5-dihydro-3H-2,4,8,11,12a-pentaazabenzo[4,5]cycloocta[1,2,3-cd]inden-3-one], the solubility (commonly how much of the substance goes into solution per volume) in data set [1] (Acetonitrile) was 1.2 mg/mL (≈ 2.28 mM); in data set [1] (DMF) it was 33 mg/mL (≈ 62.7 mM); in data set [1] (DMSO), 33 mg/mL (≈ 62.7 mM); in data set [1] (Dichloromethane), 10 mg/mL (≈ 19 mM); in data set [1] (Ethanol), 1.1 mg/mL (≈ 2.09 mM); in data set [1] (Methanol: dichloromethane (1:1)) it was 28.5 mg/mL (≈ 54.1 mM). The solubility was 50 mg/mL (≈ 95 mM) in data set [1] (Methanol: dichloromethane (1:2)); 83 mg/mL (≈ 158 mM) in data set [1] (Methanol: dichloromethane (1:3)); 83 mg/mL (≈ 158 mM) in data set [1] (Methanol: dichloromethane (1:4)); 83 mg/mL (≈ 158 mM) in data set [1] (Methanol: dichloromethane (1:5)); 14.3 mg/mL (≈ 27.2 mM) in data set [1] (Methanol: dichloromethane (2:1)); 7.7 mg/mL (≈ 14.6 mM) in data set [1] (Methanol: dichloromethane (3:1)). For the same molecule, the solubility came out at 4.3 mg/mL (≈ 8.17 mM) in data set [1] (Methanol), 11 mg/mL (≈ 20.9 mM) in data set [1] (N-methylpyridine), 2 mg/mL (≈ 3.8 mM) in data set [1] (Tetrahydrofuran) and 3.3 mg/mL (≈ 6.27 mM) in data set [1] (Toluene). The same molecule returned a solubility at 24 h in data set [2] of 0.08 to 0.39 µg/mL (≈ 0.000152 to 0.000741 mM).
